Results as given in PubChem BioAssay (NCI).
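Assay format: 96-well plates, 48-hour exposure. Abbreviation: GI50, concentration required for 50% inhibition of growth. TGI is the concentration that stops growth completely.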

Tests used:
Test in all cases: NCI tumour cell line growth inhibition, 48 h
[1] = tested on: 786-0 renal
[2] = tested on: MDA-MB-231 breast
[3] = tested on: HOP-92 NSCLC
[4] = tested on: MDA-MB-435
[5] = tested on: SK-MEL-5 melanoma
[6] = tested on: NCI-H460 lung
[7] = tested on: HCC-2998 colon
[8] = tested on: COLO 205 colon
[9] = tested on: SK-MEL-2 melanoma
[10] = tested on: SNB-75 CNS
[11] = tested on: U251 CNS
[12] = tested on: SK-MEL-28 melanoma
[13] = tested on: HL-60(TB) leukemia
[14] = tested on: HT29 colon
[15] = tested on: SF-539 CNS
[16] = tested on: SF-295 CNS
[17] = tested on: SW-620 colon
[18] = tested on: RPMI-8226 leukemia
[19] = tested on: HS 578T breast
[20] = tested on: NCI-H23 lung
[21] = tested on: SF-268 CNS
[22] = tested on: A498 renal
[23] = tested on: OVCAR-8 ovarian
[24] = tested on: BT-549 breast
[25] = tested on: UO-31 renal
[26] = tested on: CCRF-CEM leukemia
[27] = tested on: LOX IMVI melanoma
[28] = tested on: DU-145 prostate
[29] = tested on: NCI-H522 lung
[30] = tested on: IGROV1 ovarian
[31] = tested on: MCF7 breast
[32] = tested on: CAKI-1 renal
[33] = tested on: MOLT-4 leukemia
[34] = tested on: NCI-H226 lung
[35] = tested on: NCI/ADR-RES ovarian
[36] = tested on: SK-OV-3 ovarian
[37] = tested on: SR leukemia
[38] = tested on: OVCAR-4 ovarian
[39] = tested on: SN12C renal
[40] = tested on: EKVX NSCLC
[41] = tested on: HOP-62 NSCLC
[42] = tested on: HCT-116 colon
[43] = tested on: OVCAR-3 ovarian
[44] = tested on: TK-10 renal
[45] = tested on: M14 melanoma
[46] = tested on: RXF 393 renal
[47] = tested on: T-47D breast
[48] = tested on: K-562 leukemia
[49] = tested on: HCT-15 colon
[50] = tested on: A549 NSCLC
[51] = tested on: KM12 colon
[52] = tested on: SNB-19 CNS
[53] = tested on: UACC-257 melanoma
[54] = tested on: OVCAR-5 ovarian
[55] = tested on: ACHN renal
[56] = tested on: MALME-3M melanoma
[57] = tested on: PC-3 prostate
[58] = tested on: UACC-62 melanoma

## CCCC(=O)O[C@]1(C)CC[C@@H]2[C@H]3[C@@H]1[C@@H]1C[C@@](C)(O)[C@H](OC)CC[C@](C)(OC(=O)[C@@H]2C)[C@H]3O1
[1]
  GI50: > 100 µM
  TGI: > 100 µM
[2]
  GI50: 28.9 µM
  TGI: 77.6 µM
[3]
  GI50: 17.6 µM
  TGI: 31.4 µM
[4]
  GI50: 34.3 µM
  TGI: > 100 µM
[5]
  GI50: 34.9 µM
  TGI: > 100 µM
[6]
  GI50: 56.3 µM
  TGI: > 100 µM
[7]
  GI50: 17.5 µM
  TGI: 31.2 µM
[8]
  GI50: 33.7 µM
  TGI: > 100 µM
[9]
  GI50: 65.7 µM
  TGI: > 100 µM
[10]
  GI50: 16.3 µM
  TGI: 39.2 µM
[11]
  GI50: 56.9 µM
  TGI: > 100 µM
[12]
  GI50: 19.9 µM
  TGI: 35 µM
[13]
  GI50: 21.2 µM
  TGI: 45.1 µM
[14]
  GI50: 26.9 µM
  TGI: 69.7 µM
[15]
  GI50: 71.7 µM
  TGI: > 100 µM
[16]
  GI50: 30 µM
  TGI: > 100 µM
[17]
  GI50: 34.4 µM
  TGI: > 100 µM
[18]
  GI50: 13.8 µM
  TGI: 26.8 µM
[19]
  GI50: 28.8 µM
  TGI: 72.7 µM
[20]
  GI50: 96.1 µM
  TGI: > 100 µM
[21]
  GI50: 38.6 µM
  TGI: > 100 µM
[22]
  GI50: 35.4 µM
  TGI: > 100 µM
[23]
  GI50: 39.1 µM
  TGI: > 100 µM
[24]
  GI50: 40.3 µM
  TGI: > 100 µM
[25]
  GI50: 40.4 µM
  TGI: > 100 µM
[26]
  GI50: 2.35 µM
  TGI: 13.9 µM
[27]
  GI50: 66.9 µM
  TGI: > 100 µM
[28]
  GI50: 43.4 µM
  TGI: > 100 µM
[29]
  GI50: 32 µM
  TGI: > 100 µM
[30]
  GI50: 24.9 µM
  TGI: 62 µM
[31]
  GI50: 18.5 µM
  TGI: 33.7 µM
[32]
  GI50: 18.6 µM
  TGI: 39.8 µM
[33]
  GI50: 23.5 µM
  TGI: 52 µM
[34]
  GI50: 55 µM
  TGI: > 100 µM
[35]
  GI50: 67.1 µM
  TGI: > 100 µM
[36]
  GI50: 31 µM
  TGI: 97.1 µM
[37]
  GI50: 14.9 µM
  TGI: 28.1 µM
[38]
  GI50: 22.1 µM
  TGI: 50 µM
[39]
  GI50: 24.8 µM
  TGI: 59.5 µM
[40]
  GI50: 47.3 µM
  TGI: > 100 µM
[41]
  GI50: 82.7 µM
  TGI: > 100 µM
[42]
  GI50: 36.5 µM
  TGI: > 100 µM
[43]
  GI50: 16.9 µM
  TGI: 40 µM
[44]
  GI50: 28.8 µM
  TGI: 87.4 µM
[45]
  GI50: 28.9 µM
  TGI: > 100 µM
[46]
  GI50: 23.2 µM
  TGI: 72.9 µM
[47]
  GI50: 21.6 µM
  TGI: 44.5 µM
[48]
  GI50: 14.4 µM
  TGI: 27.5 µM
[49]
  GI50: 47 µM
  TGI: > 100 µM
[50]
  GI50: 40.6 µM
  TGI: > 100 µM
[51]
  GI50: 19.4 µM
  TGI: 44.7 µM
[52]
  GI50: 32.1 µM
  TGI: > 100 µM
[53]
  GI50: 24.5 µM
  TGI: 60.7 µM
[54]
  GI50: 58.9 µM
  TGI: > 100 µM
[55]
  GI50: 35.8 µM
  TGI: > 100 µM
[56]
  GI50: 17.8 µM
  TGI: 33.8 µM

## COc1cc2c(/C=C3/C(=O)Nc4ccccc43)c(Cl)n(Cc3ccc(Cl)cc3)c2cc1C
[1]
  TGI: 1.4 µM
[2]
  TGI: 0.754 µM
[3]
  TGI: 39.5 µM
[4]
  TGI: 0.428 µM
[5]
  TGI: 1.62 µM
[6]
  TGI: 2.3 µM
[7]
  TGI: 0.432 µM
[8]
  TGI: 0.665 µM
[9]
  TGI: 17.3 µM
[10]
  TGI: 0.898 µM
[11]
  TGI: 1.23 µM
[12]
  TGI: 22.9 µM
[13]
  TGI: 2.33 µM
[15]
  TGI: 0.668 µM
[16]
  TGI: 3.06 µM
[17]
  TGI: 17.5 µM
[18]
  TGI: 0.925 µM
[19]
  TGI: 9.01 µM
[20]
  TGI: 0.644 µM
[21]
  TGI: 21.3 µM
[22]
  TGI: 3.4 µM
[23]
  TGI: 0.989 µM
[24]
  TGI: 1.92 µM
[25]
  TGI: 17.6 µM
[27]
  TGI: 2.54 µM
[28]
  TGI: 1.07 µM
[29]
  TGI: 2.06 µM
[30]
  TGI: 16 µM
[31]
  TGI: 31.8 µM
[32]
  TGI: 0.834 µM
[33]
  TGI: 0.627 µM
[34]
  TGI: 1.79 µM
[35]
  TGI: 0.612 µM
[36]
  TGI: 2.85 µM
[37]
  TGI: 0.43 µM
[38]
  TGI: 18.6 µM
[39]
  TGI: 1.06 µM
[40]
  TGI: 44.9 µM
[41]
  TGI: 0.821 µM
[57]
  TGI: 16.5 µM
[42]
  TGI: 0.824 µM
[43]
  TGI: 0.432 µM
[44]
  TGI: 7.67 µM
[45]
  TGI: 1.75 µM
[46]
  TGI: 4.85 µM
[47]
  TGI: 24.2 µM
[49]
  TGI: 0.969 µM
[50]
  TGI: 10.6 µM
[51]
  TGI: 1.02 µM
[52]
  TGI: 15.8 µM
[53]
  TGI: 8.43 µM
[54]
  TGI: 8.84 µM
[55]
  TGI: 1.27 µM
[58]
  TGI: 2.5 µM
[56]
  TGI: 14.5 µM
